These results are taken from US20220288004A1, “TREATMENT AND PREVENTION OF AGING RELATED-DISEASE AND/OR AGING BY THE INHIBITION OF SPHINGOLIPIDS” (ECOLE POLYTECHNIQUE FEDERALE DE LAUSANNE (EPFL), priority 2019, published 2022).

SMILES strings stand for the structures. “Also recorded” adds a separate entry of the source.

What all share (assay type): in vivo, mouse
One assay concerns aged C57Bl/6JRj mice. Kind of assay: Muscle function tests (treadmill, aerobic capacity, grip strength, rotarod, crossbar) in aged mice. The conditions noted are these: myriocin 5 months vs DMSO. How it is done:
(§1) To examine whether a causal relationship could underlie the correlation between SphPC1 and muscle mass and function, it was tested whether inhibition of sphingolipid de novo biosynthesis pathway could protect against age-related muscle dysfunction. Aged (18-month-old) C57Bl/6JRj mice were treated for 5 months on chow diet with myriocin, a specific inhibitor of SPT, the first and rate-limiting enzyme of the sphingolipid de novo synthesis pathway, and whose expression in skeletal muscle was negatively correlated with muscular fitness in BXDs.
(§2) Animals. Young (2-month-old) and aged (18-month-old) C57Bl/6JRj mice were purchased from Janvier Labs. EchoMRI measuring the fat and lean body mass, were measured before and after the treatment. The dose of myriocin was 0.4 mg/kg/3 times a week. Myriocin (Enzo Life Sciences, Farmingdale, N.Y.) was first dissolved in DMSO which was then mixed with PBS so that each mouse received 1.5 μL DMSO per injection. Animals were fed on a standard chow diet. All animals were housed in micro-isolator cages in a room illuminated from 7:00 AM to 7:00 PM with ad libitum access to diet and water. All the animal experiments are authorized by animal license 2890.1 and 3341 in Canton of Vaud, Switzerland.
Endurance running test. The exercise regimen on a treadmill commenced at a speed of 9 cm/s. As the mice were aged, an inclination of 0 degrees was used. Mice were considered to be exhausted, and removed from the treadmill if they received 7 or more shocks (0.2 mA) per minute for two consecutive minutes. The distance traveled and time before exhaustion were registered as maximal running distance and time.
Grip strength. Muscle strength was assessed by grip strength test. The grip strength of each mouse was measured on a pulldown grid assembly connected to a grip strength meter (Columbus Instruments). The mouse was drawn along a straight line parallel to the grip, providing peak force. The experiment was repeated three times, and the highest value was included in the analysis.
Rotarod test. The rotarod test measures muscle strength, coordination, and endurance. Mice were left undisturbed in the room for 30 min. The speed of the rotating cylinder (rotarod) increased from 0 to 40 rpm in 5 min. Each mouse had 3 trials per day for 3 consecutive days. The latency and speed the mouse reached it passive rotation or fall from the rotor was recorded, and the latency and speed of the best trial of the second day is presented.
Crossbar test. Crossbar test assesses active balance through the ability to balance while walking along an elevated beam to reach a dark end side where they are able hide. Since all the mice were easily able to cross a squared (3 cm) beam, and a circular beam of diameter 1.5 cm was too difficult to them, the latency was recorded to cross a circular beam of 3 cm. The mice were trained for one day before the actual trial was recorded, and the average of the latency of three trials per mouse is presented.
A general note: In the rotarod test animals must keep their balance on a rotating rod.

For assay [1], the system named is skeletal muscle of aged mice. Kind of assay: Proteostasis (A11 staining) in skeletal muscle of aged mice. How it is done:
FIG. 17. […] Values are expressed as mean±s.e.m. *P≤0.05. Differences between two groups were assessed using Student's two-tailed t-tests (error bars: 95% confidence intervals).

For assay [2], the system named is sphingolipid de novo synthesis pathway. In words: Measurement of sphingolipids in tissues of aged mice treated with myriocin. How it is done: as §1, §2
Measurement of sphingolipids. Plasma (100 μL) and weighed tissue samples (20-60 mg) were transferred to 2 ml Safe-Lock PP-tubes, and extracted. In brief, samples were homogenized using two 6 mm steal beads on a Mixer Mill (Retsch, Haan, GER; 2×10 sec, frequency 30/s) in 700 μL MTBE/MeOH (3/1, v/v) containing 500 μmol butylated hydroxytoluene, 1% acetic acid, and 200 μmol of internal standards (IS, d18:1/17:0 ceramide, d18:1/17:0 sphingomyelin, Avanti Polar Lipids, Alabaster, Ala., USA) per sample. Total lipid extraction was performed under constant shaking for 30 min at RT. After addition of 140 μL dH2O and further incubation for 30 min on RT, samples were centrifuged at 1,000×g for 15 min to establish phase separation. 500 μL of the upper, organic phase were collected and dried under a stream of nitrogen. Lipids were resolved in 700 μL 2-propanol/methanol/water (7/2.5/1, v/v/v) for UPLC-MS analysis. Remaining tissues were dried, solubilized in NaOH (0.3 N) at 65° C. for 4 h and the protein content was determined using Pierce™ BCA reagent (Thermo Fisher Scientific, Waltham, Mass., USA) and BSA as standard.
Chromatographic separation was modified after Knittelfelder et al. using an ACQUITY-UPLC system (Waters Corporation), equipped with a Luna omega C18 column (2.1×50 mm, 1.6 μm; Phenomenex) starting a 20 min linear gradient with 80% solvent A (MeOH/H2O, 1/1, v/v; 10 mM ammonium acetate, 0.1% formic acid, 8 μM phosphoric acid). The column compartment was kept on 50° C. A EVOQ Elite™ triple quadrupole mass spectrometer (Bruker) equipped with an ESI source was used for detection of lipids in positive ionization mode. Lipid species were analyzed by selected reaction monitoring (ceramide, [M+H]+ to m/z 264.3, 22 eV, 60 ms; sphingomyelin, [M+H]+ to m/z 184.1, 20 eV, 40 ms; resolution 0.7 Q1/Q3). Data acquisition was done by MS Workstation (Bruker). Data were normalized for recovery, extraction-, and ionization efficacy by calculating analyte/IS ratios (AU) and expressed as AU/g tissue or AU/mL plasma.
Measurement of deoxysphingolipids. […] An aliquot (50 μL) of homogenate was dried under air and resuspended in RIPA buffer for protein quantification using BCA assay (BCA Protein Assay, Lambda, Biotech Inc., US). […]

The mark [3] stands for this setting: quadriceps of aged myriocin treated mice.

For `CCCCCCC(=O)CCCCCCC=CCC(O)C(O)C(N)(CO)C(=O)O` (stereo not shown) [myriocin, 2-Amino-3,4-dihydroxy-2-(hydroxymethyl)-14-oxoicos-6-enoic acid], in the assay with aged C57Bl/6JRj mice, the “aerobic capacity (maximal oxygen consumption)” value is “improved; also recorded: increased”, the “crossing of a beam” value was “faster crossing”, the grip strength result is listed as “improved; also recorded: increased” and the “performance in the rotarod test” value is given as “improved performance”. In the assay with aged C57Bl/6JRj mice, the “running distance and time on a treadmill” value is “increased; also recorded: improved performance”; the “speed reached before falling off the rotarod” value was “higher speed”. In addition, the “proteostasis in skeletal muscle” value in assay [1] (aged mice treated with myriocin) was “improves proteostasis; also recorded: promoted proteostasis”. Further, in assay [1] (skeletal muscle of aged mice treated with myriocin), the “amyloid beta aggregates (A11 staining)” value was “cleared amyloid beta aggregates”. The “total ceramide contents of skeletal muscle” value in assay [2] (aged (18-month-old) C57Bl/6JRj mice, myriocin 0.4 mg/kg i.p. 3 times per week, 5 months, vs DMSO) was “reduced”. Moreover, the “skeletal muscle deoxysphingolipid contents” value in assay [2] (aged mice, myriocin 0.4 mg/kg i.p. 3 times per week, 5 months, smaller effect than on canonical sphingolipids) was “reduced”. Also, in assay [2] (setting [3]), the “sphinganine (SA) level in skeletal muscle” value was “lower levels” and the “sphingosine (SO) level in skeletal muscle” value is reported as “lower levels”. Moreover, the “individual ceramide species in skeletal muscle” value in assay [2] (quadriceps, aged mice, myriocin 0.4 mg/kg i.p. 3 times per week, 5 months) is given as “reduced”.
